Results on three compounds are retold here after the supplement of paper PMC11061612.

Each structure is given as a SMILES string.

Common to all, as to assay: Bliss excess, mean over the matrix (fraction); higher = more synergy
In assay [1] the test system is CAL-54 (Kidney Carcinoma). The method in brief:
(§1)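 Cell lines grown in DMEM/F12 or RPMI with 10% FBS were plated in 1536-well plates and held 24 hours at 37°C, 5% CO2 before 72 hours of exposure to two-drug dose matrices, with DMSO typically at 0.2%. CellTiter-Glo 2.0 luminescence gave viability, which was converted to inhibition. Vehicle wells were set to 0 and blank wells to 1. Combination Emax is the second-highest inhibition in the matrix, and Bliss excess is the observed combination effect minus the expected EA + EB − EA·EB, where EA and EB are the single-agent effects.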

Assay [2] deals with CAPAN-1 (Pancreatic Carcinoma). The method in brief:
as §1

The next assay relates to HMV-II (Melanoma). An outline of the steps: as §1
Assay [3] deals with HO-1-u-1 (Oral Cavity Carcinoma). An outline of the steps: as §1
For assay [4], the system named is Hs-633T (Other Solid Carcinomas). The method in brief: as §1
For assay [5], the system named is LU-139 (Small Cell Lung Carcinoma). The method in brief: as §1
For assay [6], the system named is LoVo (Colorectal Carcinoma). An outline of the steps:
as §1

Assay [7] concerns MDA-MB-468 (Breast Carcinoma). An outline of the steps:
as §1

A further assay has as its system NCI-H2795 (Mesothelioma). The method in brief: as §1
The subject of another assay is NCI-H28 (Mesothelioma). An outline of the steps: as §1
In assay [8] the test system is OC-314 (Ovarian Carcinoma). An outline of the steps: as §1
The subject of assay [9] is PCI-30 (Head and Neck Carcinoma). An outline of the steps: as §1
The subject of assay [10] is RKO (Colorectal Carcinoma). The method in brief: as §1
The test system of assay [11] is RPMI-6666 (Non-Cancerous). The method in brief:
as §1

For assay [12], the system named is RT-112 (Bladder Carcinoma). The method in brief:
as §1

The next assay concerns SH-4 (Melanoma). The method in brief: as §1
Assay [13] relates to SK-OV-3 (Ovarian Carcinoma). The method in brief:
as §1

The subject of assay [14] is SU-DHL-6 (B-Cell Non-Hodgkin's Lymphoma). The method in brief: as §1
The test system of assay [15] is SW1116 (Colorectal Carcinoma). An outline of the steps: as §1
The test system of assay [16] is SW1271 (Small Cell Lung Carcinoma). The method in brief: as §1

In the case of `CN(CCO)CC[C@H](CSc1ccccc1)Nc1ccc(S(=O)(=O)NC(=O)c2ccc(N3CCC([C@@H](O)c4ccccc4-c4ccc(Cl)cc4)CC3)cc2)cc1S(=O)(=O)C(F)(F)F` [AZD4320] + CS(=O)(=O)CCNCc1ccc(-c2ccc3ncnc(Nc4ccc(OCc5cccc(F)c5)c(Cl)c4)c3c2)o1 [Lapatinib] (first compound max 1 µM, 7x7, partner max 10 µM), the Bliss excess was 0.0171 in [1]; -0.021 in [2]; -0.0663 in the assay with HMV-II (Melanoma); 0.0591 in [3]; -0.0023 in assay [4]; 0.0054 in [5]. Moreover, the Bliss excess in assay [6] was -0.0216; in assay [7], -0.0457; in the assay with NCI-H2795 (Mesothelioma) it was 0.0148; in the assay with NCI-H28 (Mesothelioma), 0.0075; in assay [8], 0.0535; in assay [9] it was 0.0067. Also, the Bliss excess in assay [10] is 0.0405; in [11] it was -0.0208; in assay [12], 0.0152; in the assay with SH-4 (Melanoma) it was -0.0411; in assay [13], -0.0007; in [14], 0.0749. The values for the Bliss excess in assay [15] and in assay [16] were 0.0117 and -0.0178, respectively.
For the compound `N#Cc1cnc(Nc2cc(NC[C@H]3CNCCO3)c(C(F)(F)F)cn2)cn1` [SRA737] + C=CCn1c(=O)c2cnc(Nc3ccc(N4CCN(C)CC4)cc3)nc2n1-c1cccc(C(C)(C)O)n1 [AZD1775] (first compound max 10 µM, partner max 1 µM), the Bliss excess in assay [1] was 0.0005; in assay [2], -0.0663; in the assay with HMV-II (Melanoma), 0.0015; in assay [3], 0.0809; in assay [4], 0.0888; in [5] it was -0.0015. For the same compound, the Bliss excess is 0.0837 in [6]; 0.0705 in [7]; 0.0401 in the assay with NCI-H2795 (Mesothelioma); 0.0829 with NCI-H28 (Mesothelioma); 0.165 in assay [8]; 0.116 in assay [9]. The Bliss excess in assay [10] was 0.0536; in assay [11], -0.0021; in assay [12], 0.107; in the assay with SH-4 (Melanoma), 0.0688; in assay [13] it was -0.0357; in assay [14], 0.131. The results for the Bliss excess in assay [15] and in assay [16] were -0.0119 and -0.0045, respectively.
With `CN(CCO)CC[C@H](CSc1ccccc1)Nc1ccc(S(=O)(=O)NC(=O)c2ccc(N3CCC([C@@H](O)c4ccccc4-c4ccc(Cl)cc4)CC3)cc2)cc1S(=O)(=O)C(F)(F)F` [AZD4320] + C[C@@H](Nc1cc(F)cc(F)c1)c1cc(C(=O)N(C)C)cc2c(=O)cc(N3CCOCC3)oc12 [AZD8186] (first compound max 1 µM, 7x7, partner max 3 µM), the Bliss excess in [1] was 0.0533; in assay [2] it was -0.0107; in the assay with HMV-II (Melanoma), -0.0397; in [3], -0.0242; in assay [4], 0.0082; in [5], -0.0107. For the same compound, the Bliss excess was 0.0355 in [6]; 0.0195 in assay [7]; 0.0426 in the assay on NCI-H2795 (Mesothelioma); 0.0474 in the assay with NCI-H28 (Mesothelioma); 0.0075 in assay [8]; -0.0503 in assay [9]. Moreover, the Bliss excess in assay [10] was -0.0164; in assay [11], 0.0298; in [12], 0.0735; in the assay with SH-4 (Melanoma), -0.0042; in assay [13] it was 0.0008; in assay [14], 0.0068. Also, the Bliss excess was 0.0353 in assay [15] and -0.0447 in assay [16].
